Test results as given in ChEMBL document CHEMBL5380857, “Discovery of Potent, Selective, and Orally Bioavailable Small-Molecule Inhibitors of CDK8 for the Treatment of Cancer” (J Med Chem, 2023).
Calls of active or inactive are those of the source. The calls are words filed in the database; no cut-off is given here.

Key:
[1] = system: MV4-11; assay: Antitumor activity against human MV4-11 cells xenografted in BALB/c nude mouse assessed as tumor growth inhibition at 3 mg/kg, po bid administered by gavage for 17 days and measured 3 times per week by caliper method relative to control; assay type: functional; details: MV4-11, 408 h, time 17 day, read-out: TGI
[2] = Clearance in Sprague-Dawley rat assessed as liver blood flow at 5 mg/kg, po or 1 mg/kg, iv administered as single dose and measured for 24 hrs by LC-MS/MS analysis; assay type: ADME, organism-based; details: in vivo
[3] = Half life in Beagle dog at 1 mg/kg, po or 0.5 mg/kg, iv administered as single dose and measured for 24 hrs by LC-MS/MS analysis; assay type: ADME, organism-based, Canis lupus familiaris; details: in vivo
[4] = system: MV4-11; assay: Induction of cell cycle arrest in human MV4-11 cells assessed as accumulation of cells at G0/G1 phase at 0.01 to 1 uM incubated for 48 hrs; assay type: functional, cell-based; details: dose 0.01-1 µM
[5] = biological target: Cytochrome P450 2C19 (Homo sapiens, UniProt P33261); assay: Inhibition of CYP2C19 in human liver microsomes using S-mephenytoin as substrate assessed as reduction in substrate hydroxylation incubated for 10 mins in presence of NADPH by LC-MS/MS analysis; assay type: ADME, Microsome
Cytochrome P450 2C19, sequence (P33261 whole entry): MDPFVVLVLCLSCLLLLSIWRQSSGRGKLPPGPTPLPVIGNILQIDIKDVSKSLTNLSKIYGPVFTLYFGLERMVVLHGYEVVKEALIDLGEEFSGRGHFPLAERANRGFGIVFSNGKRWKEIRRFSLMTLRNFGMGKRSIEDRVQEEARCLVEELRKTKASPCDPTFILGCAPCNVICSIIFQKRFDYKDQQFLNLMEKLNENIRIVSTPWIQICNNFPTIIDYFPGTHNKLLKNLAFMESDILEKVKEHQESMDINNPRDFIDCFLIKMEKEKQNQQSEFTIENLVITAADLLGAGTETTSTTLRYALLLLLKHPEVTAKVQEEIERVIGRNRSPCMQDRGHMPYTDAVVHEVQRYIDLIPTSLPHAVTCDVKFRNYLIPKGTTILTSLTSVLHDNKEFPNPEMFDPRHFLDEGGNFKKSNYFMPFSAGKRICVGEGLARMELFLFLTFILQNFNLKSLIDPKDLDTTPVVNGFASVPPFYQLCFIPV

[6] = Clearance in CD-1 mouse assessed as liver blood flow at 5 mg/kg, po or 1 mg/kg, iv administered as single dose and measured for 24 hrs by LC-MS/MS analysis; assay type: ADME, organism-based; details: in vivo
[7] = biological target: Dual specificity tyrosine-phosphorylation-regulated kinase 1B (Homo sapiens, UniProt Q9Y463); assay: Binding affinity to DYRK1B (unknown origin) assessed as dissociation constant by competitive binding assay
Dual specificity tyrosine-phosphorylation-regulated kinase 1B, sequence (Q9Y463 whole entry): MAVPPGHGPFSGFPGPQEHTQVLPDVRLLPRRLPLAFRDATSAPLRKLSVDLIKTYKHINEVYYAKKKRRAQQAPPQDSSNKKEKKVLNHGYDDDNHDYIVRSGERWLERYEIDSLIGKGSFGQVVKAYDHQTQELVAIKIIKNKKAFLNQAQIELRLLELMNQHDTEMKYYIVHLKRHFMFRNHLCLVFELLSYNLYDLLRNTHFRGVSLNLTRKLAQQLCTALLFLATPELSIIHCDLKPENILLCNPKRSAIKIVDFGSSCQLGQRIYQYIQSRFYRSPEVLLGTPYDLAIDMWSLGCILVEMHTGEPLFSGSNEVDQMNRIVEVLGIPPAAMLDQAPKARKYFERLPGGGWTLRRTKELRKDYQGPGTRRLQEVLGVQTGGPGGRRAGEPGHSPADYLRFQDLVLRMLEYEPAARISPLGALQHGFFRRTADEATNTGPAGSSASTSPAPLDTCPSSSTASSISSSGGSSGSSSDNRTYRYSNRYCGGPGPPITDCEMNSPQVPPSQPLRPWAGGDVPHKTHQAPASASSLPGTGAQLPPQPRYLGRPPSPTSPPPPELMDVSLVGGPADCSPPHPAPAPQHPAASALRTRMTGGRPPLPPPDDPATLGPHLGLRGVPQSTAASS

[8] = biological target: Cytochrome P450 2D6 (Homo sapiens, UniProt P10635); assay: Inhibition of CYP2D6 in human liver microsomes using dextromethorphan as substrate assessed as reduction in substrate demethylation incubated for 10 mins in presence of NADPH by LC-MS/MS analysis; assay type: ADME, Microsome
Cytochrome P450 2D6, sequence (P10635 whole entry): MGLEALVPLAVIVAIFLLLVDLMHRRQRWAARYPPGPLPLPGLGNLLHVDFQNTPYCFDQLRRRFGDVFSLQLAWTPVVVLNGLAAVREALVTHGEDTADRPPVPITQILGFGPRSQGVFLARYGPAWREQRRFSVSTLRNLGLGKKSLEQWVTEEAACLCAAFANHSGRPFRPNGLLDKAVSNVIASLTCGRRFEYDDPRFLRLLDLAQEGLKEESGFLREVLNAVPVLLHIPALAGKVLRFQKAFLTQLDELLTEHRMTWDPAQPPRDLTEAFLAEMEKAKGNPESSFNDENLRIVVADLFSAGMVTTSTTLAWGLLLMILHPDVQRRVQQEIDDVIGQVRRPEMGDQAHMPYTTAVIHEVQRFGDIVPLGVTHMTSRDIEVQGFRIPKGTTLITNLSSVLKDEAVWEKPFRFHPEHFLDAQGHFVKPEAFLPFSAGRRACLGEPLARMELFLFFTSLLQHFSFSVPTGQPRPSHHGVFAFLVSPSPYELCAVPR

[9] = biological target: Voltage-gated inwardly rectifying potassium channel KCNH2 (Homo sapiens, UniProt Q12809); assay: Inhibition of hERG expressed in CHO cells at -80 mV holding potential by whole cell patch clamp recording assay; assay type: toxicity, cell-based
Voltage-gated inwardly rectifying potassium channel KCNH2, sequence (Q12809 whole entry): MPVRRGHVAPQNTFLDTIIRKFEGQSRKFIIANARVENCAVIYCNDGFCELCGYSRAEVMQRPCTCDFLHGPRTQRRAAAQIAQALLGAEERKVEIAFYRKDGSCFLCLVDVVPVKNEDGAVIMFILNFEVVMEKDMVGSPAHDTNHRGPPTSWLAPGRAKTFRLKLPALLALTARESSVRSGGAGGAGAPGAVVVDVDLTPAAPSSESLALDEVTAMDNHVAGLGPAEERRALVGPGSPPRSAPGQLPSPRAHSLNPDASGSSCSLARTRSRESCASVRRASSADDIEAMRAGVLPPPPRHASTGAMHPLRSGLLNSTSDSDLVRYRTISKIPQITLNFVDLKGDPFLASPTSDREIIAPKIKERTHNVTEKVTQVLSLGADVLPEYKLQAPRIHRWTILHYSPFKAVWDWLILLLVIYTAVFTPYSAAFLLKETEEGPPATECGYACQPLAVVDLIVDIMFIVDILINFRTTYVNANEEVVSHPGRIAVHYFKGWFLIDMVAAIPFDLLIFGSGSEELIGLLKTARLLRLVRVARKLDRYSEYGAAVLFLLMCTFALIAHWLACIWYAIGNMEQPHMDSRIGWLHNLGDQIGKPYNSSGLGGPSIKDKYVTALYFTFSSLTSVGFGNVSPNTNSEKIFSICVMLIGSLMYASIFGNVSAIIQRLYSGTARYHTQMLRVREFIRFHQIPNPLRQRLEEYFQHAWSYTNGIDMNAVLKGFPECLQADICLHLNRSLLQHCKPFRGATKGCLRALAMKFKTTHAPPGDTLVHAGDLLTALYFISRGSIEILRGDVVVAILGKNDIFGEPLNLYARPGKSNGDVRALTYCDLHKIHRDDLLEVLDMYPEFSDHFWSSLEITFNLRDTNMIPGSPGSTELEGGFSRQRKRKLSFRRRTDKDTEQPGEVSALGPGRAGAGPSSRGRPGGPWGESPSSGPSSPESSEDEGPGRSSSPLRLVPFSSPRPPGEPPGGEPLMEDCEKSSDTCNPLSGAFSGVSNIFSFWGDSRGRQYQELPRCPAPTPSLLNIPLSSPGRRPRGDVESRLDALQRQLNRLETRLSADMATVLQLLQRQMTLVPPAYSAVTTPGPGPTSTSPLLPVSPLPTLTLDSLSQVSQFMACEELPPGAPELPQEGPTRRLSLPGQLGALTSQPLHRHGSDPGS

[10] = biological target: T1, Signal transducer and activator of transcription 1-alpha/beta (Homo sapiens) (UniProt P42224); assay: Inhibition of STAT1 phosphorylation at S727 residue in human MV4-11 cells incubated for 24 hrs by Western blot analysis; assay type: cell-based; details: dose 0.001-1 µM
T1 sequence (whole entry): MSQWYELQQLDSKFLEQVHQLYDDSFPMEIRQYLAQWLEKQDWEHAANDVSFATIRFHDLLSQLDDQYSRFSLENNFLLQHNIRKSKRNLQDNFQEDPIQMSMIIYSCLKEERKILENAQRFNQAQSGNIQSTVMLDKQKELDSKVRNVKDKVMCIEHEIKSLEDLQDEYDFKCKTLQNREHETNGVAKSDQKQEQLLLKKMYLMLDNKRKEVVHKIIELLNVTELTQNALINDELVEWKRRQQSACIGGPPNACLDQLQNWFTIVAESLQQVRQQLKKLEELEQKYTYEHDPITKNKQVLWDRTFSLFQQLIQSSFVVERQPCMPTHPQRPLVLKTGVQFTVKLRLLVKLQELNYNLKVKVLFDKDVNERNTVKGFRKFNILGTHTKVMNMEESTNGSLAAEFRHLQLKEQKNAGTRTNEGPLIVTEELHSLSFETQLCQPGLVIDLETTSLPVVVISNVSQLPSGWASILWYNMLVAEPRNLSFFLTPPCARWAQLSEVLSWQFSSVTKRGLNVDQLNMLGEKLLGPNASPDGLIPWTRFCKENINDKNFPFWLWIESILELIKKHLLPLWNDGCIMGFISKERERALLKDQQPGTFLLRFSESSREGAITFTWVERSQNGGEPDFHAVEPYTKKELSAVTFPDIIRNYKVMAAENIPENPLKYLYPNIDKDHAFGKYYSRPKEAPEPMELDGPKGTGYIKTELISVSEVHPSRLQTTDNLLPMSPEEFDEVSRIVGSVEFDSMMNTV

[11] = Metabolic stability in rat liver microsomes assessed as intrinsic clearance at 1 uM preincubated for 10 mins followed by NADPH addition and measured for 60 mins by LC-MS/MS analysis; assay type: ADME, Microsome; details: read-out: CLH
[12] = biological target: Glycogen synthase kinase-3 alpha (Homo sapiens, UniProt P49840); assay: Binding affinity to GSK3A (unknown origin) assessed as dissociation constant by competitive binding assay
Glycogen synthase kinase-3 alpha, sequence (P49840 whole entry): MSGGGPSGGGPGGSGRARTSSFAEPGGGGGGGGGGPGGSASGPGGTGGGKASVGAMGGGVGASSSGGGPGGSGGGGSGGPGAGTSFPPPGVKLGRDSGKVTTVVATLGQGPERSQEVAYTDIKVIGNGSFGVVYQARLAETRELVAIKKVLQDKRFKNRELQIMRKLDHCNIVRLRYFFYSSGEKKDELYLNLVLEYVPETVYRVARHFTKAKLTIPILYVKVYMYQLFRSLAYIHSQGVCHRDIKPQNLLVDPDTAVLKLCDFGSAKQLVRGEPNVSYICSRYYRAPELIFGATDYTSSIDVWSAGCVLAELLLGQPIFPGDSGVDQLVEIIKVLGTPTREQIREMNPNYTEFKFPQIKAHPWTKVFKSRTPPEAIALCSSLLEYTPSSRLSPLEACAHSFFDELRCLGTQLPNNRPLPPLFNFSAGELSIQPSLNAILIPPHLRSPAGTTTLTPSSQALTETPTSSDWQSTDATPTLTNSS

[13] = Volume of distribution in Sprague-Dawley rat at 5 mg/kg, po or 1 mg/kg, iv administered as single dose and measured for 24 hrs by LC-MS/MS analysis; assay type: ADME, organism-based; details: in vivo
[14] = Bioavailability in Beagle dog at 1 mg/kg, po or 0.5 mg/kg, iv administered as single dose and measured for 24 hrs by LC-MS/MS analysis; assay type: ADME, organism-based, Canis lupus familiaris; details: in vivo

LBF [2]: 27%
half-life [3]: 4.6 h
IC50 [5]: 30.8 µM
LBF [6]: 1.4%
Kd [7]: 2.7 µM
IC50 [8]: 44.2 µM
inhibition [10]: Dose-Dependent Effect
CLint scaled at 1 µM [11]: 29.9 mL/min/kg
Kd [12]: 0.24 µM
Vd [13]: 1.2 L/kg
bioavailability [14]: 102%
Compound: Cc1n[nH]c2ccc(-c3nnc(C)n3Cc3ccc(C(F)(F)F)cc3)cc12
inhibition in vivo at 3 mg/kg [1]: 84.8%
Activity [4]: Active
IC50 [9]: > 30 µM
